According to article PMC9150124, “Design of a Potent, Selective, and Brain-Penetrant Inhibitor of Wnt-Deactivating Enzyme Notum by Optimization of a Crystallographic Fragment Hit” (Journal of Medicinal Chemistry, 2022):
Values after ≈ are worked out from the molar mass of the structure shown. Values joined by “and” are separate entries in the source; they are usually repeats but may differ in a detail not shown here. Equal values may be shown once. Read-outs that look alike come from different tables or passages of the source.

Legend:
[1] = target: T1, CYP1A2 (Homo sapiens, UniProt P05177); assay: CYP450 inhibition in HLM
T1 sequence (P05177 1-516): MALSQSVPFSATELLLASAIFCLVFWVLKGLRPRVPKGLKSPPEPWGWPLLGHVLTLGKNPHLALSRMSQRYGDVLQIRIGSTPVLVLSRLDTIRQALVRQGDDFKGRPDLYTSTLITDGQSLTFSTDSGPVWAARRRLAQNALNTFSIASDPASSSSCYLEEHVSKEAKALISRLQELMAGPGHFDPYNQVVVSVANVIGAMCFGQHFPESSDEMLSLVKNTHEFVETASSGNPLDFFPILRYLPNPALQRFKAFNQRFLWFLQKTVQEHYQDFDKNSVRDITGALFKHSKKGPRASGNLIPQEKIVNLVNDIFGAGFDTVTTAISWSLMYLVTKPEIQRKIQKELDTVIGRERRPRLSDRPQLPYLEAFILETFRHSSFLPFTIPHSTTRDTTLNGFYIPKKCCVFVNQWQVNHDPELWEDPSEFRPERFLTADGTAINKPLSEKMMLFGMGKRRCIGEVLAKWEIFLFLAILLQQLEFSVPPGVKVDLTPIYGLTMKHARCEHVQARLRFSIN

[2] = target: T2, NaV1.5 (Homo sapiens, UniProt Q14524); assay: Safety47 cardiac sodium channel assay; format: cell-based
T2 construct: Eurofins (DiscoverX Safety47)
T2 sequence (Q14524 whole entry): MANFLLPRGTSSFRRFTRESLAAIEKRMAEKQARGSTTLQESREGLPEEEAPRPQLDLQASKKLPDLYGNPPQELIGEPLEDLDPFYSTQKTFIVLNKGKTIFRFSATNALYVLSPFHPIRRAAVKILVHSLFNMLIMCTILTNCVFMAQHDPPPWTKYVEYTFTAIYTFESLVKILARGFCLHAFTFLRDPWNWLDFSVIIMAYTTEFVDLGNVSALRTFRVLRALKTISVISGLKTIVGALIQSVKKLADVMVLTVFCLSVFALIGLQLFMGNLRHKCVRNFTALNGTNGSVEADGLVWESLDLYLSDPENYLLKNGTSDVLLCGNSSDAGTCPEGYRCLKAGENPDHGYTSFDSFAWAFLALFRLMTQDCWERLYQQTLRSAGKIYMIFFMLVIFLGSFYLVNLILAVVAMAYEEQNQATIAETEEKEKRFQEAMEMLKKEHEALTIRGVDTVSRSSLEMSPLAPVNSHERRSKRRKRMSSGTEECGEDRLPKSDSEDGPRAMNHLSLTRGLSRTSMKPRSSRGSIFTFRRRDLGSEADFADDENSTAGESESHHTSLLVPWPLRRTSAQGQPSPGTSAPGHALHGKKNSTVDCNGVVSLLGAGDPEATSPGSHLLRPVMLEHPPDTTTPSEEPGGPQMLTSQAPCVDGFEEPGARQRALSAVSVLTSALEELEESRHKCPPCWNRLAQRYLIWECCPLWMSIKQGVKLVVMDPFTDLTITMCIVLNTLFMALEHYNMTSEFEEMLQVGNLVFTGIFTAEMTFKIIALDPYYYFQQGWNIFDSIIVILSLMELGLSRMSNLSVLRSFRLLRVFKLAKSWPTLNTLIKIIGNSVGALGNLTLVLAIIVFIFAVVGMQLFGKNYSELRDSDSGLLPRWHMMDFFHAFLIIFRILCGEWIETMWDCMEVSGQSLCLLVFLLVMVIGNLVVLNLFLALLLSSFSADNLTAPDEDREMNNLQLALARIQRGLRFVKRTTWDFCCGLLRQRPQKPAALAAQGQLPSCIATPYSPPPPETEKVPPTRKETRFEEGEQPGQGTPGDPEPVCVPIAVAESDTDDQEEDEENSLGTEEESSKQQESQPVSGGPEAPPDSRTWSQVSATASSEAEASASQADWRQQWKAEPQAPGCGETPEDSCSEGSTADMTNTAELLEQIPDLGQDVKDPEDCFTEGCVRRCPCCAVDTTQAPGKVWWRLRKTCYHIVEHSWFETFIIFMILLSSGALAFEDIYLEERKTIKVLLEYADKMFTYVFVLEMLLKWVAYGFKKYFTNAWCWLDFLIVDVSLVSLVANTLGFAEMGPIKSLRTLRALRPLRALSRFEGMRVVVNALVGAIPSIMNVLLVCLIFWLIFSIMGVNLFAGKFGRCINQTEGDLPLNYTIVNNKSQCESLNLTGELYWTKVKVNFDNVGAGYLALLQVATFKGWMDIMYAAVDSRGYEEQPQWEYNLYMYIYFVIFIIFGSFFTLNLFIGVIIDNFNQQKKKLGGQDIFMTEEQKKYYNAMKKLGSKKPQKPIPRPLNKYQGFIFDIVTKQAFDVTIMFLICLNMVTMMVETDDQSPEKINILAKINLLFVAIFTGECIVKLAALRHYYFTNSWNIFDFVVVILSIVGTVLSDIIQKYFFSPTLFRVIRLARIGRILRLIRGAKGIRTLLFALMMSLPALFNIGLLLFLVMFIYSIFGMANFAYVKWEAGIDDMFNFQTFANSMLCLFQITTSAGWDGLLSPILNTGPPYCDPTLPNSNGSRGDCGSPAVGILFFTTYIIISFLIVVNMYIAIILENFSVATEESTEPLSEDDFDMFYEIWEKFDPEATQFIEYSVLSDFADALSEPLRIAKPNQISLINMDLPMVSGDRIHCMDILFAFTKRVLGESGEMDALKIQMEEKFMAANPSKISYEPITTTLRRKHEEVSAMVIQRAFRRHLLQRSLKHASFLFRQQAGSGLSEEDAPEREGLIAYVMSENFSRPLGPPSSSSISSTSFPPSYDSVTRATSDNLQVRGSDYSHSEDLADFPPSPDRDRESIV
Method: (§1) Screening for off-target pharmacology across multiple drug target classes was performed in the DiscoverX Safety47 panel as the SAFETYscan E/IC50 ELECT service by Eurofins (San Diego CA, U.S.A.). Assay information and data are presented in the Supporting Information.

[3] = target: T3, nAChR(a4/b2) (Homo sapiens, UniProt P17787+P43681); assay: Safety47 nAChR(a4/b2) antagonist assay; format: cell-based
T3 construct: Eurofins (DiscoverX Safety47)
T3 sequence (P43681 29-627 limits assumed): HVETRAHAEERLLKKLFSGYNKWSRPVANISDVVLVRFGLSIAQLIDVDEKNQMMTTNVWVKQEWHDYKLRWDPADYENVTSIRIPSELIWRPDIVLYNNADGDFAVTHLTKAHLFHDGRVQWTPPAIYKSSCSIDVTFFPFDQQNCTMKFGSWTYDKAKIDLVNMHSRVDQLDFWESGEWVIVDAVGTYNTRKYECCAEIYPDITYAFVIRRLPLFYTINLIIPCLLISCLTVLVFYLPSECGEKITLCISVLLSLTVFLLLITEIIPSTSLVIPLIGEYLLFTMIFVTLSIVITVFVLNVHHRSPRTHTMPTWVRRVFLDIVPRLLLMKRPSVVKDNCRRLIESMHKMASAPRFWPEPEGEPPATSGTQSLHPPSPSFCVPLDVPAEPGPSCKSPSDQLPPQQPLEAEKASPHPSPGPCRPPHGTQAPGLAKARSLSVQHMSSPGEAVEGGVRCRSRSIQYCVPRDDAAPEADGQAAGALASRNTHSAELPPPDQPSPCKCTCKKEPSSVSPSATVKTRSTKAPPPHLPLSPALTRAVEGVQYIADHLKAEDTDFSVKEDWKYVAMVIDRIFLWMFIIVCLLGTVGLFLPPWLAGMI
T3 sequence (P17787 26-502): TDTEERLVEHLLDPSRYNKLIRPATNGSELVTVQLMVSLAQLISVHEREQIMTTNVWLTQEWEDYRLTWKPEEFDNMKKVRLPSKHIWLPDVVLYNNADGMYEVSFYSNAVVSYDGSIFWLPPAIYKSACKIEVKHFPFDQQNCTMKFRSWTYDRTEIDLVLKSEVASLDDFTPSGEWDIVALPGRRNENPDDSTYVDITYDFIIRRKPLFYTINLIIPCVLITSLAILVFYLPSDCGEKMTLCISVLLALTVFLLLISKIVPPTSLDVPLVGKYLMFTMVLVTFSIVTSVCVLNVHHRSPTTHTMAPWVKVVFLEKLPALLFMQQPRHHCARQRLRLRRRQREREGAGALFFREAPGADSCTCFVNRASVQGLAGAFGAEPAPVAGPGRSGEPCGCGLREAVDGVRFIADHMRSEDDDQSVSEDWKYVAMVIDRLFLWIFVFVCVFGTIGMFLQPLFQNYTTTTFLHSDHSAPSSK
Method: as §1
(§2) Safety pharmacology studies
(§3) Screening for off-target pharmacology across multiple drug target classes was performed in the DiscoverX Safety47™ panel as the SAFETYscan E/IC50 ELECT service by eurofins (San Diego CA, U.S.A.). The assays were performed utilizing the PathHunter enzyme fragment complementation (EFC) technology, FLIPR®-based cellular screening assays, KINOMEscan kinase binding assays, and a variety of enzymatic assays (78 assays).

[4] = Solubility in dose formulations (cosolvents); format: physicochemical
[5] = Metabolic stability in mouse hepatocytes
[6] = Metabolic stability in human hepatocytes
[7] = Metabolic stability in rat hepatocytes
[8] = target: T4, CYP2B6 (Homo sapiens, UniProt P20813); assay: CYP450 inhibition in HLM
T4 sequence (P20813 1-491): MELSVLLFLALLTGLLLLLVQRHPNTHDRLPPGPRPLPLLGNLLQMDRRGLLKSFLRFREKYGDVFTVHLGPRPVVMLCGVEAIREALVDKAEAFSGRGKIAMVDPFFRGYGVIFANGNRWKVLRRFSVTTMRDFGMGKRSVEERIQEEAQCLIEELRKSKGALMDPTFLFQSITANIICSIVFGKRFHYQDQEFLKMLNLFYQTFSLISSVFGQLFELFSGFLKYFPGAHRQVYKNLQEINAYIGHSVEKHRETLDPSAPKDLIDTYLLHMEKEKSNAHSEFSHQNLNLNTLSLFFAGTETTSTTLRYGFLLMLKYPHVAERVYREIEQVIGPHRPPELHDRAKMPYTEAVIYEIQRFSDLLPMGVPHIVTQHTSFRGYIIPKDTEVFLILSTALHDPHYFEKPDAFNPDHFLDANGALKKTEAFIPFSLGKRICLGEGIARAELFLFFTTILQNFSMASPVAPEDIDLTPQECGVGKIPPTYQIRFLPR

[9] = target: T5, MAOA (Homo sapiens, UniProt P21397); assay: Safety47 MAOA assay; format: biochemical
T5 construct: Eurofins (DiscoverX Safety47)
T5 sequence (P21397 whole entry): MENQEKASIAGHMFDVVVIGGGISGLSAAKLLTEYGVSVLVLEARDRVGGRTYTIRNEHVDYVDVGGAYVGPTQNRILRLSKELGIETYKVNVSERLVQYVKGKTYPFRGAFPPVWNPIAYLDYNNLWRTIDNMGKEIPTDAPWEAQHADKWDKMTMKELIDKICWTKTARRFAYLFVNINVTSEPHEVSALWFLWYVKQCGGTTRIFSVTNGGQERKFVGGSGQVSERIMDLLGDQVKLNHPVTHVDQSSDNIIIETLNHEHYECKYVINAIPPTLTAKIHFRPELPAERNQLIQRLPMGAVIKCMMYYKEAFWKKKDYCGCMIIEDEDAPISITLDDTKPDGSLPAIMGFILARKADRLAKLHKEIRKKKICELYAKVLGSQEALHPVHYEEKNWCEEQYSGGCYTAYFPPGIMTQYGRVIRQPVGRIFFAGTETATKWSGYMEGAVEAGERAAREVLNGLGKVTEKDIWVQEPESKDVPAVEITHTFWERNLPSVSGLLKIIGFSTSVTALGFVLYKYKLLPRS
Method: as §1, §2, §3

[10] = test system: Caco-2 cells; assay: Permeability using Caco-2 cell monolayer; conditions: 2.00 μM
[11] = Permeability using Caco-2 cell monolayer; conditions: human
[12] = Metabolic stability in dog hepatocytes
[13] = Aqueous solubility in PBS (pH 7.4); format: physicochemical
From the text: Biosciences (Hyderabad, India) or WuXi AppTec (Shanghai, China).
Table S1: Representative assay protocol

[14] = Stability in dog liver microsomes

`FC(F)(F)c1c(Cl)ccc(-n2ccnn2)c1Cl` [8l, 1-(2,4-Dichloro-3-(trifluoromethyl)phenyl)-1H-1,2,3-triazole] gave an IC50 ([1]; read-out: CYP inhibition IC50, 1A2, HLM) of 960 nM, an IC50 ([1]; read-out: IC50 CYP1A2/Phenacetin, (+)NADPH pre-incubation) of 963 nM and an IC50 ([1]; read-out: IC50 CYP1A2/Phenacetin, (-)NADPH pre-incubation) of 964 nM. The IC50 [2] was over 30 µM, the IC50 ([3]; Figure S14, read-out: nAChR(a4/b2) antagonist RC50) was 10.2 µM and the IC50 ([3]; read-out: nAChR(a4/b2) IC50) was 10 µM. For the same compound, the solubility ([4]; 2% DMSO in PBS (with 10% solutol v/v), read-out: Solubility) was 3000 µg/mL (≈ 10.6 mM), the “Mean Concentration of dose formulation” value ([4]; 20% w/v HPßCD in Water) was 1.00 mg/mL and the “Mean Concentration of dose formulation” value ([4]; DMSO (2%v/v) + 10% v/v HPßCD in WFI (98% v/v/)) was 1.02 mg/mL. For the same compound, the “Mean Concentration of dose formulation” value ([4]; DMSO (2%v/v) + 10% v/v Solutol in PBS (98% v/v)) was 0.96 mg/mL, the solubility ([4]; dose formulations with cosolvents, read-out: aqueous solubility with cosolvents) was 1000 µg/mL (≈ 3.55 mM) and the “mouse hepatocytes Cli” value [5] was 19.4 μL/min/10^6 cells. It also gave a half-life ([5]; mouse, hepatocytes) of 74.1 min, a half-life [6] of over 217 min and a hepatocyte CLint [6] of under 6.4 µL/min/1e6 cells. For the same compound, the half-life [7] was 167 min, the hepatocyte CLint [7] was 8.3 µL/min/1e6 cells and the IC50 [8] was 3.15 µM. For the same compound, the IC50 ([8]; read-out: CYP inhibition IC50, 2B6, HLM) was 5.2 µM, the IC50 ([8]; read-out: IC50 CYP2B6/Bupropion, (+)NADPH pre-incubation) was 5.21 µM and the IC50 [9] was 28 µM. The “Caco-2 AB Papp” value ([10]; apical to basal) was 49 10-6 cm/sec, the “Caco-2 BA Papp” value ([10]; basal to apical) was 30 10-6 cm/sec and the recovery at 2 h, 2 µM ([11]; Caco-2, pH 7.4, Caco-2 A to B % Recovery) was 89.1%. It also gave a Papp at 2 h, 2 μM ([11]; Caco-2, pH 7.4, Caco-2 AB Papp, apical to basal) of 49.4 ×10⁻⁶ cm/s, a recovery at 2 h, 2 µM ([11]; Caco-2, pH 7.4, Caco-2 B to A % Recovery) of 102% and a Papp at 2 h, 2 μM ([11]; Caco-2, pH 7.4, Caco-2 BA Papp, basal to apical) of 30.3 ×10⁻⁶ cm/s. For the same compound, the half-life [12] was over 217 min, the hepatocyte CLint [12] was under 6.4 µL/min/1e6 cells and the solubility ([13]; PBS pH 7.4, read-out: aq. solubility) was 68 µg/mL and 240 µM. For the same compound, the solubility thermodynamic ([13]; PBS, pH 7.4, n = 2, read-out: Thermodynamic Solubility @ RT, mean) was 68 µg/mL (≈ 0.241 mM), the “Liver microsome stability Cli, DLM” value [14] was 10.8 μL/min/mg protein and the half-life ([14]; dog, liver microsomes) was 128 min.
